Results published in patent US20260042731A1, “(2,4-DICHLOROPHENOXY)ACETIC ACID ANALOGS” (CORTEVA AGRISCIENCE LLC, priority 2022, published 2026).
Like-named read-outs stand apart in the source and are kept apart here.

Columns and labels:
[1] = Volatility of compounds measured by thermogravimetric analysis (TGA); type: physicochemical
[2] = test system: Ambrosia artemisiifolia (AMBEL), common ragweed; assay: Postemergence herbicide evaluation, growth of Ambrosia artemisiifolia (AMBEL); type: in vivo; settings: Ambrosia artemisiifolia, post-emergence, percent reduction in plant size vs untreated control, read-out: AVE. AMBEL; for pest or weed control at 280 g/ha: 280 g ae/ha; for pest or weed control at 560 g/ha: 560 g ae/ha
[3] = test system: weeds ABUTH, AMATA, AMBEL, CHEAL, ERICA; assay: Postemergence herbicide evaluation, overall average % weed control across ABUTH, AMATA, AMBEL, CHEAL and ERICA; type: in vivo; settings: post-emergence, average over five weeds, read-out: Overall Ave % Weed Control; for pest or weed control at 280 g/ha: 280 g ae/ha; for pest or weed control at 560 g/ha: 560 g ae/ha
[4] = test system: Amaranthus rudis (AMATA), tall water hemp; assay: Postemergence herbicide evaluation, growth of Amaranthus rudis (AMATA); type: in vivo; settings: Amaranthus tuberculatus, post-emergence, percent reduction in plant size vs untreated control, read-out: Ave. AMATA; for pest or weed control at 280 g/ha: 280 g ae/ha; for pest or weed control at 560 g/ha: 560 g ae/ha
[5] = test system: Abutilon theophrasti (ABUTH), velvetleaf; assay: Postemergence herbicide evaluation, growth of Abutilon theophrasti (ABUTH); type: in vivo; settings: Abutilon theophrasti, post-emergence, percent reduction in plant size vs untreated control, read-out: AVE. ABUTH; for pest or weed control at 280 g/ha: 280 g ae/ha; for pest or weed control at 560 g/ha: 560 g ae/ha
[6] = test system: Chenopodium album (CHEAL), common lambsquarters; assay: Postemergence herbicide evaluation, growth of Chenopodium album (CHEAL); type: in vivo; settings: Chenopodium album, post-emergence, percent reduction in plant size vs untreated control, read-out: Ave. CHEAL; for pest or weed control at 280 g/ha: 280 g ae/ha; for pest or weed control at 560 g/ha: 560 g ae/ha
[7] = test system: glyphosate resistant Conyza canadensis (L.) (ERICA), horseweed; assay: Postemergence herbicide evaluation, growth of Conyza canadensis (ERICA); type: in vivo; settings: Erigeron canadensis, post-emergence, percent reduction in plant size vs untreated control, read-out: Ave. ERICA; for pest or weed control at 280 g/ha: 280 g ae/ha; for pest or weed control at 560 g/ha: 560 g ae/ha

| SMILES | pest or weed control at 280 g/ha ([2]; 168 h, 7 DAA) [%] | pest or weed control at 560 g/ha ([2]; 168 h, 7 DAA) [%] | pest or weed control at 280 g/ha ([2]; 336 h, 14 DAA) [%] | pest or weed control at 560 g/ha ([2]; 336 h, 14 DAA) [%] | pest or weed control at 560 g/ha ([2]; 504 h, 21 DAA) [%] | pest or weed control at 560 g/ha ([3]; 168 h, 7 DAA) [%] | pest or weed control at 560 g/ha ([3]; 336 h, 14 DAA) [%] | pest or weed control at 560 g/ha ([3]; 504 h, 21 DAA) [%] | pest or weed control at 560 g/ha ([4]; 168 h, 7 DAA) [%] | pest or weed control at 560 g/ha ([4]; 336 h, 14 DAA) [%] | pest or weed control at 560 g/ha ([4]; 504 h, 21 DAA) [%] | pest or weed control at 560 g/ha ([5]; 168 h, 7 DAA) [%] | pest or weed control at 560 g/ha ([5]; 336 h, 14 DAA) [%] | pest or weed control at 560 g/ha ([5]; 504 h, 21 DAA) [%] | pest or weed control at 560 g/ha ([6]; 168 h, 7 DAA) [%] | pest or weed control at 560 g/ha ([6]; 336 h, 14 DAA) [%] | pest or weed control at 560 g/ha ([6]; 504 h, 21 DAA) [%] | pest or weed control at 560 g/ha ([7]; 168 h, 7 DAA) [%] | pest or weed control at 560 g/ha ([7]; 336 h, 14 DAA) [%] | pest or weed control at 560 g/ha ([7]; 504 h, 21 DAA) [%] | also measured |
| --- | --- | --- | --- | --- | --- | --- | --- | --- | --- | --- | --- | --- | --- | --- | --- | --- | --- | --- | --- | --- | --- |
| O=C(COc1ccc(Cl)cc1Cl)NOC1CCCCO1 (stereo not shown) [Compound D15] | 85 | 90 | 82.5 | 92.5 | 100 | 83.5 | 94.9 | 98.9 | 85 | 95 | 97.5 | 80 | 94.5 | 99.5 | 82.5 | 97.5 | 97.5 | 80 | 95 | 100 | TGA Data (rate of weight loss, volatility) ([1]; value marked *: decomposition of the material was observed): 6.9* μg/min; pest or weed control at 286 g/ha ([2]; 504 h, 286 g ae/ha, 21 DAA): 100%; pest or weed control at 280 g/ha ([3]; 168 h, 7 DAA): 76%; pest or weed control at 280 g/ha ([3]; 336 h, 14 DAA): 89.2%; pest or weed control at 286 g/ha ([3]; 504 h, 286 g ae/ha, 21 DAA): 91.3%; pest or weed control at 280 g/ha ([4]; 168 h, 7 DAA): 75%; pest or weed control at 280 g/ha ([4]; 336 h, 14 DAA): 85%; pest or weed control at 286 g/ha ([4]; 504 h, 286 g ae/ha, 21 DAA): 72.5%; pest or weed control at 280 g/ha ([5]; 168 h, 7 DAA): 70%; pest or weed control at 280 g/ha ([5]; 336 h, 14 DAA): 87.5%; pest or weed control at 286 g/ha ([5]; 504 h, 286 g ae/ha, 21 DAA): 99.5%; pest or weed control at 280 g/ha ([6]; 168 h, 7 DAA): 77.5%; pest or weed control at 280 g/ha ([6]; 336 h, 14 DAA): 94%; pest or weed control at 286 g/ha ([6]; 504 h, 286 g ae/ha, 21 DAA): 85%; pest or weed control at 280 g/ha ([7]; 168 h, 7 DAA): 72.5%; pest or weed control at 280 g/ha ([7]; 336 h, 14 DAA): 97%; pest or weed control at 286 g/ha ([7]; 504 h, 286 g ae/ha, 21 DAA): 99.5% |
| C=CCONC(=O)COc1ccc(Cl)cc1Cl [Compound D33] | 86 | 80 | 96 | 90 | 100 | 77.7 | 94.9 | 97.8 | 92 | 92.5 | 92.5 | 92.5 | 99.5 | 100 | 46.5 | 92.5 | 99 | 77.5 | 100 | 97.5 | TGA Data (rate of weight loss, volatility) [1]: 0.34 µg/min; pest or weed control at 280 g/ha ([2]; 504 h, 21 DAA): 100%; pest or weed control at 280 g/ha ([3]; 168 h, 7 DAA): 85.7%; pest or weed control at 280 g/ha ([3]; 336 h, 14 DAA): 96.9%; pest or weed control at 280 g/ha ([3]; 504 h, 21 DAA): 98.2%; pest or weed control at 280 g/ha ([4]; 168 h, 7 DAA): 92.5%; pest or weed control at 280 g/ha ([4]; 336 h, 14 DAA): 92.5%; pest or weed control at 280 g/ha ([4]; 504 h, 21 DAA): 95%; pest or weed control at 280 g/ha ([5]; 168 h, 7 DAA): 85%; pest or weed control at 280 g/ha ([5]; 336 h, 14 DAA): 98.5%; pest or weed control at 280 g/ha ([5]; 504 h, 21 DAA): 100%; pest or weed control at 280 g/ha ([6]; 168 h, 7 DAA): 82.5%; pest or weed control at 280 g/ha ([6]; 336 h, 14 DAA): 98%; pest or weed control at 280 g/ha ([6]; 504 h, 21 DAA): 96.5%; pest or weed control at 280 g/ha ([7]; 168 h, 7 DAA): 82.5%; pest or weed control at 280 g/ha ([7]; 336 h, 14 DAA): 99.5%; pest or weed control at 280 g/ha ([7]; 504 h, 21 DAA): 99.5% |
| O=C(COc1ccc(Cl)cc1Cl)NOCc1c(F)cccc1Cl [Compound D17] | – | 77.5 | – | 92.5 | 100 | 73.8 | 89.8 | 94.5 | 86.5 | 96 | 92.5 | 47.5 | 62.5 | 80 | 77.5 | 98 | 100 | 80 | 100 | 100 | TGA Data (rate of weight loss, volatility) [1]: 0.0287 µg/min |
| O=C(COc1ccc(Cl)cc1Cl)NOCCc1ccccc1 [Compound D18] | 75 | 91 | 80 | 95 | 100 | 83.9 | 95.6 | 98.5 | 96 | 96 | 95 | 72.5 | 96.5 | 99.5 | 75 | 92.5 | 100 | 85 | 98 | 98 | TGA Data (rate of weight loss, volatility) [1]: 0.1777 µg/min; pest or weed control at 280 g/ha ([2]; 504 h, 21 DAA): 100%; pest or weed control at 280 g/ha ([3]; 168 h, 7 DAA): 75%; pest or weed control at 280 g/ha ([3]; 336 h, 14 DAA): 89.8%; pest or weed control at 280 g/ha ([3]; 504 h, 21 DAA): 93.5%; pest or weed control at 280 g/ha ([4]; 168 h, 7 DAA): 72.5%; pest or weed control at 280 g/ha ([4]; 336 h, 14 DAA): 87.5%; pest or weed control at 280 g/ha ([4]; 504 h, 21 DAA): 75%; pest or weed control at 280 g/ha ([5]; 168 h, 7 DAA): 67.5%; pest or weed control at 280 g/ha ([5]; 336 h, 14 DAA): 85%; pest or weed control at 280 g/ha ([5]; 504 h, 21 DAA): 100%; pest or weed control at 280 g/ha ([6]; 168 h, 7 DAA): 75%; pest or weed control at 280 g/ha ([6]; 336 h, 14 DAA): 97.5%; pest or weed control at 280 g/ha ([6]; 504 h, 21 DAA): 92.5%; pest or weed control at 280 g/ha ([7]; 168 h, 7 DAA): 85%; pest or weed control at 280 g/ha ([7]; 336 h, 14 DAA): 99%; pest or weed control at 280 g/ha ([7]; 504 h, 21 DAA): 100% |
